Patent publication US20100297256A1, “METHODS AND COMPOSITIONS FOR INHIBITING INTEGRINS USING TELLURIUM-CONTAINING COMPOUNDS” (priority 2007, published 2010)

Assays:
[1] = tested on: leukemic cells from AML patients; assay: Sensitization of leukemic cells from AML patients to chemotherapy; assay type: cell-based, human
Method: 2×10^4 per 200 μl cells were seeded in 96-microwell flat bottom plates. After 24 hours, the tested compound(s) (e.g., AS101, ARA-C, DTNB, anti-VLA-4 antibody) was added, and the cells were incubated overnight with the tested compound(s). The XTT solution was then added and the cells were incubated for 4 hours at 37° C. Cell viability was than evaluated by measuring absorbance at 450 nm using a Microplate Spectrophotometer (Spectra MAX Plus, Molecular Devices).
Bone marrow samples from patients diagnosed, with AML, but not yet treated, were obtained and grown in vitro. The leukemic cells obtained therefrom were tested for levels of VLA-4 and VLA-5 via fluorescence based cytometry, using FITC (fluorescein isothiocyanate)-conjugated anti-VLA-4 and anti-VLA-5 antibodies, using standard procedures. The cells were grown on both fibronectin and BSA, and the effect of AS101 on chemotherapy resistance was measured.

[2] = tested on: Akt; assay: Western blot analysis of Akt; assay type: cell-based, human
Method: Phosphorylation of Akt was determined by Western blot analysis.

[3] = tested on: West Nile Virus (WNV); assay: Western blot analysis of WNV protein synthesis (WNV-E protein); assay type: cell-based; settings: Vero cells
Method: Vero cells grown in 6-well plates (2×10^5 cells/well) were harvested and total cell extracts were prepared by suspension in 50 μl of ice-cold lysis buffer containing 50 mM Tris (pH 8.0), 150 mM NaCl, 1% NP-40, 0.1% SDS, 5 mM EDTA, 0.2 mM PMSF, 50 mM NaF, […] sodium vanadate, 5 mg/ml aprotinin and 5 mg/ml leupeptin. Cell lysates were boiled for 5 minutes and electrophoresed on 8% SDS-polyacrylamide gel, and were then transferred to a nitrocellulose membrane which was then incubated consecutively with a monoclonal antibody against the WNV envelope (WNV-E) protein and an anti-β-actin or anti-tubulin monoclonal antibody. The Nitrocellulose membranes were developed using horseradish peroxidase-conjugated secondary antibodies and the ECL detection system (Pierce, Rockford, Ill.). Quantitative evaluation of E protein calibrated against tubulin or β-actin was done by scanning and analysis using the Image-J program (www.//rsb.info.nih.gov/ij).

[4] = tested on: RAW cells; assay: Cell attachment assay, RAW; assay type: cell-based
[5] = tested on: West Nile Virus (WNV); assay: WNV yield assay; assay type: cell-based; settings: Vero cells, 5 μg/ml 1 hour before inoculation
Method: Vero cells were seeded as described above in 96-well plates. Cells were treated with AS101 and infected with WNV at MOI of 5 PFU/cell. The cells were washed six times with PBS, and fresh medium was added. The virus titer in harvested culture supernatants was determined by a microtitration assay as follows [Colley et al., in Colgan et al., Current Protocols in Immunology, John Wiley & Sons, New York, N.Y., 2003]: 10-fold serial dilutions of supernatants were used to infect Vero cells in 96-well plates. […] Viral titers (expressed as log 10 of TCID50/ml) were calculated according to the Spearman-Karber method [Hierholzer and Killington, in Mahy and Kangro, Virology Methods Manual, Academic Press, San Diego, Calif., 1996].

[6] = tested on: Bcl2; assay: Western blot analysis of Bcl2; assay type: cell-based, human; settings: AS101 added to ARA-C
From the text: The expression of the survival factor Bcl2 was examined via Western blot analysis in U937 cells treated with the chemotherapeutic agent ARA-C.

[7] = tested on: West Nile Virus (WNV); assay: West Nile Virus (WNV) cytopathic effect assay; assay type: cell-based; settings: Vero cells
Method: Attached cells were washed with PBS without Ca^+2/Mg^+2. 100 μl of 0.2% crystal violet in 20% methanol was thereafter added and the cells were incubated for 10 minutes at room temperature. At the end of incubation time, cells were washed twice with double-distilled water and 100 μl of 10% SDS was added. Dye bound to the cell is released by SDS and the absorption by the dye is measured by colorimetry at 570 nm. The amount of stained cells is then considered to be proportional to the measured absorption by the dye
Vero cells were seeded at the density of 2×10^4 cells/well in 96-well plates, 20 hours before infection. The cells were treated with PBS or with various concentrations of AS101 before (1 hour or 5-10 minutes), or after (1 hour or 24 hours) virus inoculation. WNV at MOI (multiplicity of infection) of 0.005 PFU (plaque forming units) per cell was added to the cells and allowed undergo absorption for 1 hour at 37° C. The medium was removed and the cells were washed twice with PBS and overlaid with fresh medium. Cells were then incubated at 37° C. with 5% CO2 for 3-5 days. The development of a cytopathic effect was monitored by light microscopy.

[8] = target: T1, αVβ3 integrin (Homo sapiens, UniProt P05106+P06756); assay: Integrin-WNV attachment assay; assay type: binding; settings: purified integrin 75 ng/well
T1 construct: purchased Chemicon
T1 sequence (P06756 31-889 limits assumed): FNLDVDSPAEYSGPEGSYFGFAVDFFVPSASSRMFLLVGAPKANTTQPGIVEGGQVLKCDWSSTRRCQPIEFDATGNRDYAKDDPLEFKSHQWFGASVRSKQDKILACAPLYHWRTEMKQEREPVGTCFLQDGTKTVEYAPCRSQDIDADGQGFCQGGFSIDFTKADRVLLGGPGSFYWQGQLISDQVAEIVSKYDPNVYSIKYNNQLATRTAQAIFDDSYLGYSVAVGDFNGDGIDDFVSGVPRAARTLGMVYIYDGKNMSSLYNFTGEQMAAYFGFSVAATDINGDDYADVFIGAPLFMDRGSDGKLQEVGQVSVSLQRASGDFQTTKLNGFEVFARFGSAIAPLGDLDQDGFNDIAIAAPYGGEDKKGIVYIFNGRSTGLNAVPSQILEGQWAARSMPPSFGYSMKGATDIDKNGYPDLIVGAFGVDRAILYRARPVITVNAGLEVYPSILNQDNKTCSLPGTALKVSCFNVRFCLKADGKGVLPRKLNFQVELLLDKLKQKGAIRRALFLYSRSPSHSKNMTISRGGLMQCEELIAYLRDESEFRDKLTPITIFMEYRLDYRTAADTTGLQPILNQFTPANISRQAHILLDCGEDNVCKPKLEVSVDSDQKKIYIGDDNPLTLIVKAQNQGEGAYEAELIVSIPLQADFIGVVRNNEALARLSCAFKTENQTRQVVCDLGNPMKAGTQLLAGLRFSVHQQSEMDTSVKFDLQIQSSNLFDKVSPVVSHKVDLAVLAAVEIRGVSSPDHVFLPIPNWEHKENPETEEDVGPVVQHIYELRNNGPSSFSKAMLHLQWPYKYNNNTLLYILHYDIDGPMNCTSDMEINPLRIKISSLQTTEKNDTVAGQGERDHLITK
T1 sequence (P06756 891-1048 limits assumed): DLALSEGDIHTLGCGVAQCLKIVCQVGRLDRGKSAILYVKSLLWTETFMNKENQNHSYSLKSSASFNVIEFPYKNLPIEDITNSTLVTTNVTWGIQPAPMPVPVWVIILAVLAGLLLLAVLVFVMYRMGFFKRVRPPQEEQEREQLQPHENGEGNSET
T1 sequence (P05106 27-788): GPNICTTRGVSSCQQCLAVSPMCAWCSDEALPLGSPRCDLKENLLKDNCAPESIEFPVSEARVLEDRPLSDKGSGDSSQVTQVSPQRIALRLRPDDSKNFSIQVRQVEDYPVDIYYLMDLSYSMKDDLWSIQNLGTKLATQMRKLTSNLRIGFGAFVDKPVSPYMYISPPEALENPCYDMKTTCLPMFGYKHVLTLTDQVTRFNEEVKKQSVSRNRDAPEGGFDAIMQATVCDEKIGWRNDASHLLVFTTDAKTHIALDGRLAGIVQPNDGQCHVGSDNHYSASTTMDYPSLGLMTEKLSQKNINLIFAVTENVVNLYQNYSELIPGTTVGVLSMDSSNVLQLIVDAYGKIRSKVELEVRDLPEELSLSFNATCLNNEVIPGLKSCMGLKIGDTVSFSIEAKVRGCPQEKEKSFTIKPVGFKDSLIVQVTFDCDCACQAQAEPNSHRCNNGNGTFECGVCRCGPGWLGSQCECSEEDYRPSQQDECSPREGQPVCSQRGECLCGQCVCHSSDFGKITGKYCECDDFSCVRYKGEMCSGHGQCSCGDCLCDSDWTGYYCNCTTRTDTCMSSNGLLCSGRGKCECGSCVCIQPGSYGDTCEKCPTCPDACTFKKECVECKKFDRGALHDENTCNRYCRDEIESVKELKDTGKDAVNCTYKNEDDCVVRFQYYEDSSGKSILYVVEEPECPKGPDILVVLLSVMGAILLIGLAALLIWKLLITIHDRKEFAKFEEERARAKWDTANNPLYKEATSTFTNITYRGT
Method: A solid-phase binding assay was performed according to a method previously described by Sharma et al [Virology, 239:150, 1997]. WNV was diluted in 50 mM carbonate-bicarbonate buffer, pH 9.6, to a concentration of 10^6 PFU/ml, and 100 μl aliquots were added to the wells of 96-well Nunc-Maxisorp ELISA plates. The plates were incubated overnight at 4° C., washed three times with washing buffer (20 mM Tris-HCL [pH 7.5], 150 mM NaCl), and then blocked for 2 hours at room temperature with […] of blocking buffer containing 20 mM Tris-HCL, pH 7.5, 150 mM NaCl, 5% Bovine serum albumin (BSA). The wells were then washed again, and purified αVβ3 integrin (75 ng/well), diluted in binding buffer (20 mM Tris-HCL, pH 7.5, 150 mM NaCl, 5% BSA, 2 mM CaCl2, 1 mM MgCl2) containing various concentrations of AS101, was added to the wells. After 2 hours of incubation at 37° C., the wells were washed three times with washing buffer. Bound integrin was detected with mouse monoclonal anti-human αVβ3 integrin antibody (Millipore [Chemicon]) diluted 1:1000 in 100 μl binding buffer. Incubation continued for 1 hour at 37 C, and then the wells were washed again. […] Colour development was stopped by the addition of 1 N H2SO4, and plates were read in a spectrophotometer at 492 nm.

| SMILES | inhibition of resistance to ARA-C ([1]; 8 AML patients with high VLA-4 levels, on fibronectin, 0.5 or 1 μg/ml AS101) | inhibition of resistance to ARA-C ([1]; Patient B, high VLA-4, on fibronectin) | sensitization to ARA-C, combination of AS101 and DTNB vs either alone ([1]; high-VLA-4 cells on fibronectin) | effect on viability of cells exposed to ARA-C, alone or in combination ([1]; low VLA-4 leukemic cells, fibronectin-coated plates) | total amounts of Akt ([2]; U937) | level of phosphorylated Akt (pAkt) ([2]; U937 on fibronectin, dose-dependent) | level of cell-bound WNV-E protein (virus attachment) ([3]; 5 μg/ml, 5 and 15 minutes after virus adsorption) | inhibition of virus protein (WNV-E) expression vs untreated cells ([3]; 2 and 5 μg/ml, 8 hours after infection) | cell attachment to fibronectin [4] | decrease in virus yield ([5]; 24 hours post-infection) [log] | decrease in virus yield ([5]; 36 hours post-infection) [log] | expression of Bcl2 ([6]; U937 on BSA) | expression of Bcl2 ([6]; U937 on fibronectin) | WNV cytopathic effect ([7]; 2.5 μg/ml added 5-10 minutes before inoculation) | viability of WNV-infected cells (crystal violet) ([7]; 72 hours after infection) | WNV cytopathic effect ([7]; added 1 hour or 24 hours after inoculation, data not shown) | attachment of αVβ3 integrin to immobilized WNV [8] |
| --- | --- | --- | --- | --- | --- | --- | --- | --- | --- | --- | --- | --- | --- | --- | --- | --- | --- |
| Cl[TeH]1(Cl)(Cl)OCCO1 [AS101, ammonium trichloro(dioxyethylene-O,O′)tellurate] | inhibited the resistance to ARA-C of high-VLA-4 cells on fibronectin in a dose-dependent manner | inhibited the resistance to ARA-C of high-VLA-4 cells on fibronectin in a dose-dependent manner | did not sensitize high-VLA-4 cells grown on fibronectin to a greater degree than did either AS101 or DTNB alone | no effect either alone or in combination | remained unchanged | reduced the level of phosphorylated Akt | marked reduced the level of WNV-E protein | 2-3 fold | inhibited cell attachment to fibronectin | 1 | 2 | no effect | did not decrease expression of Bcl2 in cells plated on fibronectin (FN) unless AS101 was added | no cytopathic effect is observed | dose-dependent protective effect | did not exhibit such an inhibitory effect | directly inhibited the attachment of αVβ3 integrin to WNV in a dose dependent manner |
| O=C1O[Te]23OC(=O)C(O2)C2O[Te]4(OC(=O)C(O4)C1O3)OC2=O [SAS, [TeO4(COCH)2]2] | – | – | – | – | – | – | – | – | inhibited cell attachment to fibronectin | – | – | – | – | – | – | – | – |
